Results on 14 compounds are retold here after patent US8288419B2, “Aminopyrazole derivatives” (Actelion Pharmaceuticals, Ltd, priority 2007, dated 2012).

As usually defined, the EC50 is the concentration at which the effect is half-maximal.

This test deals with T1, recombinant human ALX receptor (Homo sapiens, UniProt P25090).
T1 construct: expressed in transfected cells; host or cells: HEK293 (HEK293-hALXR-Gα16)
T1 sequence (P25090 1-351): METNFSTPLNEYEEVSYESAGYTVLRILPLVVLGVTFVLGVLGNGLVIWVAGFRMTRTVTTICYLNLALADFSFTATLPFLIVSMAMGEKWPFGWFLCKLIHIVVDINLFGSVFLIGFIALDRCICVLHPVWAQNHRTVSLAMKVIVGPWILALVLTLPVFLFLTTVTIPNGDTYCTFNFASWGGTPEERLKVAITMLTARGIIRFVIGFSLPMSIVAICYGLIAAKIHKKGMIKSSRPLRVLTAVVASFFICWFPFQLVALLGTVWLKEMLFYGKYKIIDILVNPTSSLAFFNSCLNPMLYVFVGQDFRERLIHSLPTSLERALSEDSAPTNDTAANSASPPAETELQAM
The experiment in a line: Intracellular calcium measurements (FLIPR), ALX receptor agonistic activity. It counts as cell-based. The following applies: HEK293-hALXR-Gα16 cells, Fluo-4 calcium fluorescence, normalized to 10 nM WKYMVm. The procedure:
The ALX receptor agonistic activity of the compounds of formula (I) is determined in accordance with the following experimental method.
Intracellular Calcium Measurements:
Cells expressing recombinant human ALX receptor and the G-protein Gα16 (HEK293-hALXR-Gα16) were grown to 80% confluency in Growing Medium (GM). […] Stock solutions of test compounds were made up at a concentration of 10 mM in DMSO, and serially diluted in AB to concentrations required for activation dose response curves. WKYMVm (Phoenix Peptides) was used as a reference agonist. A FLIPR384 instrument (Molecular Devices) was operated according to the manufacturer's standard instructions, adding 4 μl of test compound dissolved at 10 mM in DMSO and diluted prior to the experiment in assay buffer to obtain the desired final concentration. Changes in fluorescence were monitored before and after the addition of test compounds at lex=488 nm and lem=540 nm. Emission peak values above base level after compounds addition were exported after base line subtraction. Values were normalized to high-level control (WKYMVm compound, 10 nM final concentration) after subtraction of the base line value (AB addition). The program XLlfit 3.0 (IDBS) was used to fit the data to a single site dose response curve of the equation (A+((B−A)/(1+((C/x)^D)))) and to calculate the EC50 values.
With `CC(F)(F)c1csc(Cn2ccc(NC(=O)c3ncoc3-c3ccccc3)n2)n1` [Example 461, 5-Phenyl-oxazole-4-carboxylic acid {1-[4-(1,1-difluoro-ethyl)-thiazol-2-ylmethyl]-1H-pyrazol-3-yl}-amide], the EC50 was found to be 1090 nM.
The value for `CC(F)CCCCn1cc(NC(=O)OCc2ccccc2Cl)cn1` (centres unmarked) [Example 236, [1-(5-Fluoro-hexyl)-1H-pyrazol-4-yl]-carbamic acid 2-chloro-benzyl ester] was 118 nM; that for `COc1ccc(-c2ocnc2C(=O)Nc2ccn(Cc3ccc(C(C)=O)o3)n2)cc1` [Example 48, 5-(4-Methoxy-phenyl)-oxazole-4-carboxylic acid [1-(5-acetyl-furan-2-ylmethyl)-1H-pyrazol-3-yl]-amide] was 198 nM; that for `CC(F)(F)c1ccc(Cn2cc(NC(=O)c3ncoc3-c3ccccc3)cn2)o1` [Example 200, 5-Phenyl-oxazole-4-carboxylic acid {1-[5-(1,1-difluoro-ethyl)-furan-2-ylmethyl]-1H-pyrazol-4-yl}-amide] was 46 nM.
The value for `CC(=O)c1cc(Cn2cc(NC(=O)c3ncoc3-c3ccccc3)cn2)on1` [Example 362, 5-Phenyl-oxazole-4-carboxylic acid [1-(3-acetyl-isoxazol-5-ylmethyl)-1H-pyrazol-4-yl]-amide] was 1470 nM; that for `CC(=O)c1ccc(Cn2cc(NC(=O)OCc3ccc(C(F)(F)F)cc3)cn2)o1` [Example 63, [1-(5-Acetyl-furan-2-ylmethyl)-1H-pyrazol-4-yl]-carbamic acid 4-trifluoromethyl-benzyl ester] was 53 nM.
As for `CC(=O)c1ccc(Cn2ccc(NC(=O)c3ncoc3-c3cccc(-c4ccccc4)c3)n2)o1` [Example 356, 5-Biphenyl-3-yl-oxazole-4-carboxylic acid [1-(5-acetyl-furan-2-ylmethyl)-1H-pyrazol-3-yl]-amide], the figure is 29 nM.
Turning to `CS(=O)(=O)c1ccc(Cn2cc(NC(=O)c3ncoc3-c3ccccc3)cn2)o1` [Example 413, 5-Phenyl-oxazole-4-carboxylic acid [1-(5-methanesulfonyl-furan-2-ylmethyl)-1H-pyrazol-4-yl]-amide], the EC50 is 486 nM.
With `CC(F)(F)CCCCn1ccc(NC(=O)OCc2ccccc2Cl)n1` [Example 201, [1-(5,5-Difluoro-hexyl)-1H-pyrazol-3-yl]-carbamic acid 2-chloro-benzyl ester], the EC50 worked out at 154 nM.
Turning to `COCCc1cccc(-c2ocnc2C(=O)Nc2ccn(Cc3ccc(C(C)=O)o3)n2)c1` [Example 379, 5-[3-(2-Methoxy-ethyl)-phenyl]-oxazole-4-carboxylic acid [1-(5-acetyl-furan-2-ylmethyl)-1H-pyrazol-3-yl]-amide], the 50% effective concentration (EC50) turned out to be 18 nM.
Consider `CC(=O)c1csc(Cn2ccc(NC(=O)c3ncoc3-c3cccc(N(C)C)c3)n2)n1` [Example 449, 5-(3-Dimethylamino-phenyl)-oxazole-4-carboxylic acid [1-(4-acetyl-thiazol-2-ylmethyl)-1H-pyrazol-3-yl]-amide], for which the EC50 turned out to be 182 nM.
The value for `CC(=O)c1cccc(Cn2cc(NC(=O)c3ncoc3-c3ccccc3)cn2)n1` [Example 364, 5-Phenyl-oxazole-4-carboxylic acid [1-(6-acetyl-pyridin-2-ylmethyl)-1H-pyrazol-4-yl]-amide] was 809 nM; that for `COCc1nc(C(=O)Nc2cnn(Cc3ccc(C(C)=O)o3)c2)c(-c2ccccc2)o1` [Example 416, 2-Methoxymethyl-5-phenyl-oxazole-4-carboxylic acid [1-(5-acetyl-furan-2-ylmethyl)-1H-pyrazol-4-yl]-amide] was 61 nM; that for `CC(=O)c1ccc(Cn2cc(NC(=O)c3nc(Cc4ccccc4)oc3-c3ccccc3)cn2)o1` [Example 432, 2-Benzyl-5-phenyl-oxazole-4-carboxylic acid [1-(5-acetyl-furan-2-ylmethyl)-1H-pyrazol-4-yl]-amide] was 200 nM.
